For the first data set, the target named is T1, Vasoactive intestinal polypeptide receptor 1 (Homo sapiens, UniProt P32241). Further: in other assays of this panel Not Active means under 50% inhibition at 10 µM.
T1 sequence (P32241 whole entry): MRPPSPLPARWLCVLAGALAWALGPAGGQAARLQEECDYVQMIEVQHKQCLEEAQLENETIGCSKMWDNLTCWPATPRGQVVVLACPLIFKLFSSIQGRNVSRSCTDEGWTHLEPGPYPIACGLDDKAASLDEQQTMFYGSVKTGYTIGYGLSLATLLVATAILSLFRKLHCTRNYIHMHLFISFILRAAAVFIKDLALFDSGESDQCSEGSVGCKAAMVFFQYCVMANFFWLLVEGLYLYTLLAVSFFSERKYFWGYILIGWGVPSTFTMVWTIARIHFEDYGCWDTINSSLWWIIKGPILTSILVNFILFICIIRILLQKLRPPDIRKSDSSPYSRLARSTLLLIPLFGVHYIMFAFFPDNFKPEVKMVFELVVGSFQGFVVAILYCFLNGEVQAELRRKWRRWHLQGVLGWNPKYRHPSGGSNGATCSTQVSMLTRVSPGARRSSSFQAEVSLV
Test: not given
It counts as cell membranes, Membrane. Conditions: ht-29.
For the compound `Oc1c(I)cc(I)c2cccnc12` [IODOQUINOL], the IC50 result is given as “Not Active”.

On to `NC(CO)(CO)CO` [TROMETHAMINE], for which the IC50 result is “Not Active”.

`O=[N+]([O-])c1cc([As](=O)(O)O)ccc1O` [ROXARSONE]: the IC50 result is recorded as “Not Active” and the Ki result is listed as “Not Active”.

`Cc1ncc([N+](=O)[O-])n1CC(C)O` (centres undefined) [SECNIDAZOLE]: the IC50 result was “Not Active”.

Take `CC1=C(/C=C/C(C)=C/C=C/C(C)=C\C(=O)O)C(C)(C)CCC1` [ISOTRETINOIN]: the IC50 entry is reported as “Not Active”.

A further data set addresses T2, 5-hydroxytryptamine receptor 1A (Rattus norvegicus, UniProt P19327).
T2 sequence (P19327 whole entry): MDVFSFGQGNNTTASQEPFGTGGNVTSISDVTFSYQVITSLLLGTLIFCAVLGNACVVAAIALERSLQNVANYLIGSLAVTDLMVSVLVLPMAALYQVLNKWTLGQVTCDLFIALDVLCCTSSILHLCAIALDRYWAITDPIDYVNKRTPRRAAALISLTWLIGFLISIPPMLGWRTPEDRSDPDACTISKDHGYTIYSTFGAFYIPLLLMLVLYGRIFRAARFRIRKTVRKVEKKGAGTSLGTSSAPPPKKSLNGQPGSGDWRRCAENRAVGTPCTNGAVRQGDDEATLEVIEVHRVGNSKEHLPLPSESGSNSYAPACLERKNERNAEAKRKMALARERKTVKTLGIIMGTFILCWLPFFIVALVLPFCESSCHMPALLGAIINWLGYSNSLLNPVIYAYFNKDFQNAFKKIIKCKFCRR
Test: not given
It counts as cell membranes, CHO-K1, Membrane. The note with it: cho-k1.
Consider `Oc1c(I)cc(I)c2cccnc12` [IODOQUINOL], for which the IC50 entry is recorded as “Not Active”.

As for `NC(CO)(CO)CO` [TROMETHAMINE], the IC50 result was “Not Active”.

With `O=[N+]([O-])c1cc([As](=O)(O)O)ccc1O` [ROXARSONE], the IC50 result was “Not Active” and the Ki entry is “Not Active”.

Consider `Cc1ncc([N+](=O)[O-])n1CC(C)O` (centres undefined) [SECNIDAZOLE], for which the IC50 result was “Not Active”.

For `CC1=C(/C=C/C(C)=C/C=C/C(C)=C\C(=O)O)C(C)(C)CCC1` [ISOTRETINOIN], the IC50 entry is given as “Not Active”.

Another data set concerns the target T3, Cytochrome P450 2A6 (Homo sapiens, UniProt P11509). Further: in other assays of this panel Not Active means under 50% inhibition at 10 µM.
T3 sequence (P11509 whole entry): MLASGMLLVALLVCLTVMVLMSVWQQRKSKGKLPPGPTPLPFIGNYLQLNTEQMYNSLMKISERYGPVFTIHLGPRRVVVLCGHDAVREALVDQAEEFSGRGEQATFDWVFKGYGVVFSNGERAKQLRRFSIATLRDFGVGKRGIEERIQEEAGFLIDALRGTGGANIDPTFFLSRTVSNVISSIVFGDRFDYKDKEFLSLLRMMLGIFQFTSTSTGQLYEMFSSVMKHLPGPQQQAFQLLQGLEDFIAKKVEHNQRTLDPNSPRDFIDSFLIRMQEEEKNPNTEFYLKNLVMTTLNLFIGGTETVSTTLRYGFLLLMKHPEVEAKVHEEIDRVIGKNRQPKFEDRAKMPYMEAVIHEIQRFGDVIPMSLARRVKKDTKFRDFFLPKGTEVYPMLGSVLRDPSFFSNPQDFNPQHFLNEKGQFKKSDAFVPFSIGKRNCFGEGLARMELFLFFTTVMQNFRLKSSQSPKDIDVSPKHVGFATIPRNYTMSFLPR
Test: not given
Conditions: bti-tn-5b1-4.
As to `Oc1c(I)cc(I)c2cccnc12` [IODOQUINOL], the IC50 entry was “Not Active” and the Ki result is “Not Active”.

As to `NC(CO)(CO)CO` [TROMETHAMINE], the IC50 result is “Not Active” and the Ki entry is on record as “Not Active”.

`O=[N+]([O-])c1cc([As](=O)(O)O)ccc1O` [ROXARSONE]: the IC50 entry is recorded as “Not Active” and the Ki result was “Not Active”.

On to `Cc1ncc([N+](=O)[O-])n1CC(C)O` (centres undefined) [SECNIDAZOLE], for which the IC50 entry was “Not Active” and the Ki entry is “Not Active”.

`CC1=C(/C=C/C(C)=C/C=C/C(C)=C\C(=O)O)C(C)(C)CCC1` [ISOTRETINOIN]: the IC50 entry is listed as “Not Active” and the Ki result is “Not Active”.

System in another data set: not listed separately
In words: DRUGMATRIX: Purinergic P2X radioligand binding (ligand: [3H] alpha, beta-Methylene-ATP). The note with it: Not Active = under 50% inhibition at 10 µM. It counts as cell membranes, Oryctolagus cuniculus, New Zealand albino, Urinary bladder, Membrane.
Consider `Oc1c(I)cc(I)c2cccnc12` [IODOQUINOL], for which the IC50 entry is “Not Active” and the Ki entry is “Not Active”.

In the case of `NC(CO)(CO)CO` [TROMETHAMINE], the IC50 result was “Not Active” and the Ki entry is “Not Active”.

In the case of `O=[N+]([O-])c1cc([As](=O)(O)O)ccc1O` [ROXARSONE], the IC50 result was “Not Active” and the Ki result was “Not Active”.

Consider `Cc1ncc([N+](=O)[O-])n1CC(C)O` (centres undefined) [SECNIDAZOLE], for which the IC50 entry is on record as “Not Active” and the Ki result was “Not Active”.

Take `CC1=C(/C=C/C(C)=C/C=C/C(C)=C\C(=O)O)C(C)(C)CCC1` [ISOTRETINOIN]: the IC50 entry is “Not Active” and the Ki result was “Not Active”.

System in another data set: not listed separately
In words: DRUGMATRIX: Imidazoline I2, Central radioligand binding (ligand: [3H] Idazoxan). Conditions: Not Active = under 50% inhibition at 10 µM. It counts as cell membranes, Rattus norvegicus, Wistar, Cerebral cortex, Membrane.
`Oc1c(I)cc(I)c2cccnc12` [IODOQUINOL]: the IC50 result is “Not Active” and the Ki entry is listed as “Not Active”.

For `NC(CO)(CO)CO` [TROMETHAMINE], the IC50 result was “Not Active” and the Ki entry is “Not Active”.

Take `O=[N+]([O-])c1cc([As](=O)(O)O)ccc1O` [ROXARSONE]: the IC50 entry was “Not Active” and the Ki entry is reported as “Not Active”.

Take `Cc1ncc([N+](=O)[O-])n1CC(C)O` (centres undefined) [SECNIDAZOLE]: the IC50 result was “Not Active” and the Ki result was “Not Active”.

For `CC1=C(/C=C/C(C)=C/C=C/C(C)=C\C(=O)O)C(C)(C)CCC1` [ISOTRETINOIN], the IC50 result is recorded as “Not Active” and the Ki result is recorded as “Not Active”.

For a further data set, the target named is Platelet-activating factor receptor (Homo sapiens, UniProt P25105). In words: biochemical. It counts as tissue-based. Conditions: platelet. Further: in other assays of this panel Not Active means under 50% inhibition at 10 µM.
Platelet-activating factor receptor, sequence (P25105 whole entry): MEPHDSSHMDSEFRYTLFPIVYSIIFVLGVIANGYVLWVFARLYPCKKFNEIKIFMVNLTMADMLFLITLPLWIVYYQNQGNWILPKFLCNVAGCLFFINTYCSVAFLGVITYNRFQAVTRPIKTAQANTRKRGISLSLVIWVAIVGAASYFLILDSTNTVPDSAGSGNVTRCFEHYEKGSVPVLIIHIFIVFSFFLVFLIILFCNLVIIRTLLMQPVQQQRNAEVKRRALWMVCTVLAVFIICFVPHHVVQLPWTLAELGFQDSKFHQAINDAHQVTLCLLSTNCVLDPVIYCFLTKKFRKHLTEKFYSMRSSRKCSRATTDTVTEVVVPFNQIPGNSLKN
With `Oc1c(I)cc(I)c2cccnc12` [IODOQUINOL], the IC50 result is given as “Not Active”.

For the compound `NC(CO)(CO)CO` [TROMETHAMINE], the IC50 entry is given as “Not Active”.

With `O=[N+]([O-])c1cc([As](=O)(O)O)ccc1O` [ROXARSONE], the IC50 result is reported as “Not Active” and the Ki result was “Not Active”.

As for `Cc1ncc([N+](=O)[O-])n1CC(C)O` (centres undefined) [SECNIDAZOLE], the IC50 result was “Not Active”.

As for `CC1=C(/C=C/C(C)=C/C=C/C(C)=C\C(=O)O)C(C)(C)CCC1` [ISOTRETINOIN], the IC50 entry is on record as “Not Active”.

In a further data set the target is T4, 3-hydroxy-3-methylglutaryl-coenzyme A reductase (Homo sapiens, UniProt P04035).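 Further: enzyme inhibition assay of HMG-CoA reductase using radiolabeled [14C]HMG-CoA as substrate; in other assays of this panel Not Active means under 50% inhibition at 10 µM.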
T4 sequence (P04035 whole entry): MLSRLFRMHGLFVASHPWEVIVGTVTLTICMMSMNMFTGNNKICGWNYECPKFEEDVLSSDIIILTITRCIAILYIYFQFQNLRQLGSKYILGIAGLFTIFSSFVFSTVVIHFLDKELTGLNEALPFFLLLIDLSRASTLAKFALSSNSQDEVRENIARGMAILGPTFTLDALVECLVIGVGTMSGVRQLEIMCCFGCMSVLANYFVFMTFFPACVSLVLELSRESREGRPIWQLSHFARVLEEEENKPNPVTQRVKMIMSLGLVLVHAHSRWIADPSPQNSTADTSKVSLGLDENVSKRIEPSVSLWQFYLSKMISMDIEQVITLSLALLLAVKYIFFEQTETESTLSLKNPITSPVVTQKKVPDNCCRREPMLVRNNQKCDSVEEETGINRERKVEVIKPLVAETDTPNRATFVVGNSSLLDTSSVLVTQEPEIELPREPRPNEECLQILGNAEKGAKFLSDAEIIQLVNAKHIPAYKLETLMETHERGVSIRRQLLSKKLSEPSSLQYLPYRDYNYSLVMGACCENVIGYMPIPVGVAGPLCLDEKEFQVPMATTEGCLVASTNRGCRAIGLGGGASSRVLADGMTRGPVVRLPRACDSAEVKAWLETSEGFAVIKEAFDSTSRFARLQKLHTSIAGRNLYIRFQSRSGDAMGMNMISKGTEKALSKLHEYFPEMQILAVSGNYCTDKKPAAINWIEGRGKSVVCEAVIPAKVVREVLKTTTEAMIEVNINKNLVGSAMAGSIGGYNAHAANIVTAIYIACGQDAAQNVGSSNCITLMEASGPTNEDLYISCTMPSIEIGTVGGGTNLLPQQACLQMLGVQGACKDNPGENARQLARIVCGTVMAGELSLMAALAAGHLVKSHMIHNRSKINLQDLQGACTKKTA
Test: not given
Further details: species or system Escherichia coli.
Settings: not given
In the case of `Oc1c(I)cc(I)c2cccnc12` [IODOQUINOL], the IC50 result is reported as “Not Active”.

As to `NC(CO)(CO)CO` [TROMETHAMINE], the IC50 result is given as “Not Active”.

Turning to `O=[N+]([O-])c1cc([As](=O)(O)O)ccc1O` [ROXARSONE], the IC50 entry was “Not Active” and the Ki entry is recorded as “Not Active”.

`Cc1ncc([N+](=O)[O-])n1CC(C)O` (centres undefined) [SECNIDAZOLE]: the IC50 result was “Not Active”.

As to `CC1=C(/C=C/C(C)=C/C=C/C(C)=C\C(=O)O)C(C)(C)CCC1` [ISOTRETINOIN], the IC50 result is given as “Not Active”.

The values above are taken from ChEMBL document CHEMBL1909046, “DrugMatrix in vitro pharmacology data”.
